The target of this assay is T1, Human TRPC6 (Homo sapiens, UniProt Q9Y210).
T1 construct: expressed in transfected cells
T1 sequence (Q9Y210 1-931): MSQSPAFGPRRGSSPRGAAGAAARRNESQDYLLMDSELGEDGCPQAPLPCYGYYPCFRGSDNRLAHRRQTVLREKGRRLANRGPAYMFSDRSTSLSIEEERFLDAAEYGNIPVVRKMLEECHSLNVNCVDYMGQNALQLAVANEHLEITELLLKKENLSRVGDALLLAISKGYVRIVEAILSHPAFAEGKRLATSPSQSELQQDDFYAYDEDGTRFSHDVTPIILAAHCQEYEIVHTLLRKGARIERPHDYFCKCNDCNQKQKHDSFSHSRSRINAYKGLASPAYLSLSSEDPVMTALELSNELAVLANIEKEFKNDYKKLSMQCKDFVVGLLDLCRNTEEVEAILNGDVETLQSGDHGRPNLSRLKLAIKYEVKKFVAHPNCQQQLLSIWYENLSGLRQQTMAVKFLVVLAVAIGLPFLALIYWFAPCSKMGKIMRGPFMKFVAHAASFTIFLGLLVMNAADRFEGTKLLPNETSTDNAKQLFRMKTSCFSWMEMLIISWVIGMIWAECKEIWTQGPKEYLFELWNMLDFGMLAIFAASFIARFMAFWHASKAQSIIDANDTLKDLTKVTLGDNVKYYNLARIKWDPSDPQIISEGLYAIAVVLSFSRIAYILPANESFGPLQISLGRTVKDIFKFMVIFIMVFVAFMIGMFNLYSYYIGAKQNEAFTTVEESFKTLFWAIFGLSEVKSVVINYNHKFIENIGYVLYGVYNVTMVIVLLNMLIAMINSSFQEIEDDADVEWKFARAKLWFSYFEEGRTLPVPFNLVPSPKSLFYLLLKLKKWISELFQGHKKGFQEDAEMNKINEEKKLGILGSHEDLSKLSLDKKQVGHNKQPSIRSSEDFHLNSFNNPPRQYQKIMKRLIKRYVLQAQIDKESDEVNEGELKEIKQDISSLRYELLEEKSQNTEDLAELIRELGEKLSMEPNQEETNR
Description: Evaluation of TRPC6 channel inhibitory activity (2), HEK293 cells with stably introduced human TRPC6, OAG stimulation, FLIPR tetra (Compound Nos. 1293 to 1405). The format is cell-based. The following applies: HEK293 cells with stably introduced human TRPC6, OAG 50 μM/0.5% DMSO, read-out: Inhibitory activity (pIC50 class) (converted). A digest of the protocol:
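Calcium-dye-loaded HEK293 cells stably expressing human TRPC6 were pretreated with compound for 25 min, then stimulated with 50 μM OAG (0.5% DMSO) in Ca ringer buffer pH 7.2 with 2 mM CaCl2. Background-subtracted FLIPR calcium peaks were normalized to OAG (100%) and buffer (0%); pIC50 came from four-parameter logistic fit, binned as +/++/+++.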

Structures are written as SMILES.

For `Cc1cc(Oc2cc(Cl)ccc2-c2ccc([C@H](O)CN)cn2)cc(N2CCOCC2)n1` [compound 1396, (1S)-2-amino-1-[6-[4-chloro-2-(2-methyl-6-morpholin-4-ylpyridin-4-yl)oxyphenyl]pyridin-3-yl]ethanol], the IC50 was 10 to 1000 nM.

Consider `Cc1cc(Oc2cc(Cl)cnc2-c2ccc([C@@H](F)CN)cn2)cc(N2CCOCC2)n1` [compound 1397, (2R)-2-[6-[5-chloro-3-(2-methyl-6-morpholin-4-ylpyridin-4 yl)oxypyridin-2-yl]pyridin-3-yl]-2-fluoroethanamine], for which the IC50 was 10 to 1000 nM.

Take `Cc1cc(Oc2cc(Cl)cnc2-c2ccc([C@H](F)CN)cn2)cc(N2CCOCC2)n1` [compound 1398]: the IC50 is under 10 nM.

Regarding `Cn1nc(C2CCOCC2)cc1Oc1cc(Cl)cnc1-c1ccc(C(F)(F)CN)cn1` [compound 1399, 2-[6-[5-chloro-3-[2-methyl-5-(oxan-4-yl)pyrazol-3-yl]oxypyridin-2-yl]pyridin-3-yl]-2,2-difluoroethanamine], the IC50 was over 1000 nM.

On to `Cn1nc(C2CCOCC2)cc1Oc1cc(C#N)ccc1-c1ccc(C(F)(F)CN)cn1` [compound 1400, 4-[5-(2-amino-1,1-difluoroethyl)pyridin-2-yl]-3-[2-methyl-5-(oxan-4-yl)pyrazol-3-yl]oxybenzonitrile], for which the IC50 was 10 to 1000 nM.

With `Cn1nc(-c2ccccn2)cc1Oc1cc(Cl)ccc1-c1ccc([C@@H](O)CN)cn1` [compound 1401, (1R)-2-amino-1-[6-[4-chloro-2-(2-methyl-5-pyridin-2-ylpyrazol-3-yl)oxyphenyl]pyridin-3-yl]ethanol], the IC50 is 10 to 1000 nM.

With `Cc1nc(Oc2cc(C#N)ccc2-c2ncc([C@H](F)CN)cn2)cc(N2CCOCC2)n1` [compound 1403, 4-[5-[(1S)-2-amino-1-fluoroethyl]pyrimidin-2-yl]-3-(2-methyl-6-morpholin-4-ylpyrimidin-4-yl)oxybenzonitrile], the IC50 is 10 to 1000 nM.

`Cn1nc(-c2ccccn2)cc1Oc1cc(Cl)cc(F)c1-c1ccc(CN)cn1` [compound 1404, [6-[4-chloro-2-fluoro-6-(2-methyl-5-pyridin-2-ylpyrazol-3-yl)oxyphenyl]pyridin-3-yl]methanamine]: the IC50 is under 10 nM.

Consider `Cc1nc(Oc2cc(Cl)ccc2-c2ncc(CCN)cn2)c(C)c(N2CCOCC2)n1` [compound 1405, 2-[2-[4-chloro-2-(2,5-dimethyl-6-morpholin-4-ylpyrimidin-4-yl)oxyphenyl]pyrimidin-5-yl]ethanamine], for which the IC50 was over 1000 nM.

The record behind these values is US20230167073A1 (Teijin Pharma Limited, priority 2020, published 2023).
